Measured values as given in ChEMBL document CHEMBL5726067, “[8-(phenylsulfonyl)-3,8-diazabicyclo[3.2.1]oct-3-yl](1H-1,2,3-triazol-4-yl)methanones” (2019).

Biological target: T1, Aldo-keto reductase family 1 member C3 (Homo sapiens, UniProt P42330)
T1 sequence (P42330 whole entry): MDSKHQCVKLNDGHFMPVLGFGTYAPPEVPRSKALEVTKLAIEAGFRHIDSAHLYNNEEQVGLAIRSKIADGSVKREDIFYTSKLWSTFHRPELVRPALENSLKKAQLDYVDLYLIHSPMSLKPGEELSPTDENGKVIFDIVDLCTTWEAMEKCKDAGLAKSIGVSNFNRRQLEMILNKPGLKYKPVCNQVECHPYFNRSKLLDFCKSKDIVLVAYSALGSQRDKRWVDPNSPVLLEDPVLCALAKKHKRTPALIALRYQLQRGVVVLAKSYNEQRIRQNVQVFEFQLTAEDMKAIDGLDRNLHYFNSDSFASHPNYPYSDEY
Assay: AKR1C3-Inhibitory Activity Assay: The enzyme used was recombinant human AKR1C3 (Aldo-keto reductase family 1 member C3; GenBank Accession No. NM_003739). This was expressed in E. coli as GST (glutathione S transferase) fusion protein and purified by glutathione Sepharose affinity chromatography. The GST was removed by digestion with thrombin and subsequent size exclusion chromatography (Dufort, I., Rheault, P., Huang, X F., Soucy, P., and Luu-The, V., Endocrinology 140, 568-574 (1999)).For the assay, 50 nl of a 100-fold concentrated solution of the test substance in DMSO were pipetted into a black low-volume 384-well microtiter plate (Greiner Bio-One, Frickenhausen, Germany), 2.5 μl of a solution of AKR1C3 in assay buffer [50 mM potassium phosphate buffer pH 7, 1 mM DTT, 0.0022% (w/v) Pluronic F-127, 0.01% BSA (w/v) and protease inhibitor cocktail (Complete, EDTA-free Protease Inhibitor Cocktail from Roche)] were added and the mixture was incubated for 15 min to allow pre-binding of the substances to the enzyme prior to the enzyme reaction. The enzyme reaction was then started by addition of 2.5 μl of a solution of NADPH (20 μM→final concentration in 5 μl of assay volume is 10 μM) and Coumberone (0.6 μM→final concentration in 5 μl of assay volume is 0.3 μM) in assay buffer, and the resulting mixture was incubated at 22° C. for the reaction time of typically 90 min. […]

Compound: O=C(c1cnn[nH]1)N1CC2CCC(C1)N2S(=O)(=O)c1ccccc1Br
- IC50: 0.7 nM

Compound: O=C(c1cnn[nH]1)N1CC2CCC(C1)N2S(=O)(=O)c1ccccc1Cl
- IC50: 1.4 nM
